Measurements: paper PMC8744338, “Luteolin increases susceptibility to macrolides by inhibiting MsrA efflux pump in Trueperella pyogenes” (Veterinary Research, 2022)

Molecular target: T1, MsrA efflux pump (His-MsrA) (Staphylococcus epidermidis, UniProt P23212)
T1 construct: macrolide ABC-F MsrA of staphylococcal type, not methionine sulfoxide reductase
Assay: surface plasmon resonance (Biacore T200, His-MsrA captured on NTA chip)
Assay type: binding
Settings: PBS-P running buffer; luteolin 12.5-400 μM

T1 sequence (P23212 whole entry): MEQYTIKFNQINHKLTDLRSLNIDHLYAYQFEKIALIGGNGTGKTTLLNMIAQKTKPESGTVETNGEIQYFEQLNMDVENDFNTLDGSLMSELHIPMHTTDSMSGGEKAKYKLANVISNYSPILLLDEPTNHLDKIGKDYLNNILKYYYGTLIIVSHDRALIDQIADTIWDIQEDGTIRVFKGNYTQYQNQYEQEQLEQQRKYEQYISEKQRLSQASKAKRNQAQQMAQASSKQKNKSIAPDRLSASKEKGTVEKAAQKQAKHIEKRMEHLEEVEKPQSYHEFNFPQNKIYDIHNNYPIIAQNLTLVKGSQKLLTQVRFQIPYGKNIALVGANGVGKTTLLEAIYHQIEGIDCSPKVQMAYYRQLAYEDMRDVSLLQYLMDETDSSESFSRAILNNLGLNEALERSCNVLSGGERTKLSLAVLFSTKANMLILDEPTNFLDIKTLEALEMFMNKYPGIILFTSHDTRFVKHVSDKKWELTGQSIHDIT

## O=c1cc(-c2ccc(O)c(O)c2)oc2cc(O)cc(O)c12 [luteolin]
  Kd: 64.6 µM
